Data: patent US10287269B2, “Pyrazolyl pyrimidinone compounds as PDE2 inhibitors” (Merck Sharp & Dohme Corp., priority 2015, dated 2019)
Where two headings read alike, the source gives them in different places.

Target: T1, Rhesus PDE2A3 (Macaca mulatta, UniProt B3VTJ2)
T1 construct: made in house; host or cells: AD293 cells, transient transfection, pcDNA3.3-TOPO; lysate supernatant used as enzyme
T1 sequence (B3VTJ2 1-941): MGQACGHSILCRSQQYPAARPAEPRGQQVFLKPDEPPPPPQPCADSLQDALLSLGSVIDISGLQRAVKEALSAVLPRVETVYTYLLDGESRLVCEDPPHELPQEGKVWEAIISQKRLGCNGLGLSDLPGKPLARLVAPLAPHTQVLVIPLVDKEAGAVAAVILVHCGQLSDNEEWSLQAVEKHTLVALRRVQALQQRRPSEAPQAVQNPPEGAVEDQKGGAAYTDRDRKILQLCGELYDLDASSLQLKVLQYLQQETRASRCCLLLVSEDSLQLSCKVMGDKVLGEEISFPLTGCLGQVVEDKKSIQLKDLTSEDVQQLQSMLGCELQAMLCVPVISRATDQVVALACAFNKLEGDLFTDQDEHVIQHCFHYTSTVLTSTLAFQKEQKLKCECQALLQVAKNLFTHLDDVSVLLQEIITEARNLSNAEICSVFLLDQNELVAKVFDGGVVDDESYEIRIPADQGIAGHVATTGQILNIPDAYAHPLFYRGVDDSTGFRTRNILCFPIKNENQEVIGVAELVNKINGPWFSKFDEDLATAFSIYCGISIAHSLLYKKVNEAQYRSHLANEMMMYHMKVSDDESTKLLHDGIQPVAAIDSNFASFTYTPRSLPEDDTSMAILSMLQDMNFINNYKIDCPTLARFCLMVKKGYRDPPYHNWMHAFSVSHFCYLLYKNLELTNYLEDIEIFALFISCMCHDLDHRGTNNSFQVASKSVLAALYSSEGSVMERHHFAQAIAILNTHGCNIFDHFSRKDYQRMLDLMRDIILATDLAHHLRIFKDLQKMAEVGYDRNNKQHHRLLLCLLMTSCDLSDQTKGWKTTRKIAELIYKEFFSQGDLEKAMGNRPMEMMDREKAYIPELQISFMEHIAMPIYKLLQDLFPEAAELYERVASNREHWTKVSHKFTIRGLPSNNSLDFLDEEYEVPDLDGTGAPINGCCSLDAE
Assay: PDE2 fluorescence polarization (IMAP FP) inhibition assay, rhesus enzyme
Format: biochemical, rhesus macaque
Summary of the method: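 Lysate of AD293 cells transiently expressing rhesus PDE2A3, diluted for ~20% substrate conversion, with 50 nM FAM-cAMP and 1 uM cGMP activator in pH 7.2 Tris/MgCl2 buffer, 60 min at room temperature.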

[1] = Lab A, read-out: Rhesus PDE2 Ki (nM) Lab A
[2] = Lab B, read-out: Rhesus PDE2 Ki (nM) Lab B

Compound	Ki [1]	Ki [2]
CC(C)c1nc(-c2cnn(C(C)c3ccc(C(F)(F)F)cc3F)c2)cc(=O)[nH]1 (stereo not shown) [Example 9, 6-(1-(1-(2-Fluoro-4-(trifluoromethyl)phenyl)ethyl)-1H-pyrazol-4-yl)-2-isopropylpyrimidin-4(3H)-one]	58.8 nM	30.7 nM
Cc1nc(-c2cnn(Cc3ccc(OC(F)(F)F)cc3)c2)cc(=O)[nH]1 [Example 29, 2-Methyl-6-(1-(4-(trifluoromethoxy)benzyl)-1H-pyrazol-4-yl)pyrimidin-4(3H)-one]		1210 nM
CCc1ccc(C(C)n2cc(-c3cc(=O)[nH]c(C)n3)cn2)c(Cl)c1 (single isomer, unassigned) [Example 99, (R)- or (S)-6-(1-(1-(2-chloro-4-ethylphenyl)ethyl)-1H-pyrazol-4-yl)-2-methylpyrimidin-4(3H)-one]	10.7 nM	
CC(c1ccc(C(F)(F)F)cc1F)n1cc(-c2cc(=O)[nH]c(Cc3ccccc3)n2)cn1 (stereo not shown) [Example 35, 2-benzyl-6-(1-(1-(2-fluoro-4-(trifluoromethyl)phenyl)ethyl)-1H-pyrazol-4-yl)pyrimidin-4(3H)-one]	38.3 nM	17.3 nM
COc1ccc(Cc2nc(-c3cnn(C(C)c4ccc(S(F)(F)(F)(F)F)cc4)c3)cc(=O)[nH]2)cc1OC (single isomer, unassigned) [Example 64, (R)- or (S)-2-(3,4-dimethoxybenzyl)-6-(1-(1-(4-(pentafluorosulfanyl)phenyl)ethyl)-1H-pyrazol-4-yl)pyrimidin-4(3H)-one]	7.2 nM	3.5 nM
Cc1nc(-c2cc([C@H](C)c3ccc(C(F)(F)F)cc3)[nH]n2)cc(=O)[nH]1 (single isomer, unassigned) [Example 24]		154 nM
COc1ccc(Cc2nc(-c3cnn(C(C)c4ccc(C(F)(F)F)cc4F)c3)cc(=O)[nH]2)cc1 (single isomer, unassigned) [Example 138, (R)- or (S)-6-(1-(1-(2-fluoro-4-(trifluoromethyl)phenyl)ethyl)-1H-pyrazol-4-yl)-2-(4-methoxybenzyl)pyrimidin-4(3H)-one]	5.6 nM	1.6 nM
Cc1nc(-c2cnn(C(C)c3ccc(C4CC4)cc3F)c2)cc(=O)[nH]1 (single isomer, unassigned) [Example 91, (R)- or (S)-6-(1-(1-(4-cyclopropyl-2-fluorophenyl)ethyl)-1H-pyrazol-4-yl)-2-methylpyrimidin-4(3H)-one]	60 nM	
COc1ccc(Cc2nc(-n3ccc(C(C)c4ccc(C(F)(F)F)cc4)n3)cc(=O)[nH]2)cc1OC (single isomer, unassigned) [Example 133, (R)- or (S)-2-(3,4-dimethoxybenzyl)-6-(3-(1-(4-(trifluoromethyl)phenyl)ethyl)-1H-pyrazol-1-yl)pyrimidin-4(3H)-one]		64.8 nM
CCc1nc(-c2cnn(C(C)c3ccc(C(F)(F)F)cc3F)c2)cc(=O)[nH]1 (stereo not shown) [Example 36, 2-ethyl-6-(1-(1-(2-fluoro-4-(trifluoromethyl)phenyl)ethyl)-1H-pyrazol-4-yl)pyrimidin-4(3H)-one]	25.7 nM	
Cc1nc(-n2cc([C@H](C)c3ccc(C(F)(F)F)cc3)cn2)cc(=O)[nH]1 (single isomer, unassigned) [Example 4]		29.5 nM
Cc1nc(-c2cnn(C(C)c3ccc(C(F)(F)F)cc3C)c2)cc(=O)[nH]1 (single isomer, unassigned) [Example 57, (S)- or (R)-2-methyl-6-(1-(1-(2-methyl-4-(trifluoromethyl)phenyl)ethyl)-1H-pyrazol-4-yl)pyrimidin-4(3H)-one]	13.1 nM	13 nM
Cc1nc(-n2cc(Cc3ccc(OC(F)(F)F)cc3)cn2)cc(=O)[nH]1 [Example 30, 2-Methyl-6-(4-(4-(trifluoromethoxy)benzyl)-1H-pyrazol-1-yl)pyrimidin-4(3H)-one]		2940 nM
Cc1nc(-c2ccn(C(C)c3ccc(C(F)(F)F)cc3)n2)cc(=O)[nH]1 (single isomer, unassigned) [Example 77, (R)- or (S)-2-methyl-6-(1-(1-(4-(trifluoromethyl)phenyl)ethyl)-1H-pyrazol-3-yl)pyrimidin-4(3H)-one]		542 nM
Cc1ccc(C(C)n2cc(-c3cc(=O)[nH]c(C)n3)cn2)c(Cl)c1 (single isomer, unassigned) [Example 148, (R)- or (S)-6-(1-(1-(2-chloro-4-methylphenyl)ethyl)-1H-pyrazol-4-yl)-2-methylpyrimidin-4(3H)-one]	47.9 nM	
COc1ccc(Cc2nc(-c3cnn(C(C)c4ccc(C(F)(F)F)cc4F)c3)cc(=O)[nH]2)cc1OC (single isomer, unassigned) [Example 67]	0.2 nM	0.1 nM
COc1ccc(Cc2nc(-c3cnn(C(C)c4ccc(C(F)(F)F)cc4F)c3)cc(=O)[nH]2)cc1F (single isomer, unassigned) [Example 147, (S)- or (R)-6-(1-(1-(2-fluoro-4-(trifluoromethyl)phenyl)ethyl)-1H-pyrazol-4-yl)-2-(3-fluoro-4-methoxybenzyl)pyrimidin-4(3H)-one]	3.6 nM	
Cc1nc(-c2cnn(C(C)c3ccc(C(F)(F)F)cc3)c2C)cc(=O)[nH]1 (single isomer, unassigned) [Example 82, (S)- or (R)-2-methyl-6-(5-methyl-1-{(1R)-1-[4-(trifluoromethyl)phenyl]ethyl}-1H-pyrazol-4-yl)pyrimidin-4(3H)-one]		192 nM
CCc1nc(-c2cnn(C(C)c3ccc(C(F)(F)F)cc3F)c2)cc(=O)[nH]1 (single isomer, unassigned) [Example 85, (R)- or (S)-2-ethyl-6-(1-(1-(2-fluoro-4-(trifluoromethyl)phenyl)ethyl)-1H-pyrazol-4-yl)pyrimidin-4(3H)-one]	14.4 nM	
COc1ccc(Cc2nc(-c3cnn(C(C)c4ccc(C(F)(F)F)cc4F)c3)cc(=O)[nH]2)cc1OC (single isomer, unassigned) [Example 66, (R)- or (S)-2-(3,4-dimethoxybenzyl)-6-(1-(1-(2-fluoro-4-(trifluoromethyl)phenyl)ethyl)-1H-pyrazol-4-yl)pyrimidin-4(3H)-one]		0.8 nM
Cc1nc(-n2cc([C@](C)(O)c3ccc(C(F)(F)F)cc3F)cn2)cc(=O)[nH]1 (single isomer, unassigned) [Example 16]		75.8 nM
Cc1nc(-n2cc(C(C)c3ccc(C(F)(F)F)cc3F)cn2)cc(=O)[nH]1 (single isomer, unassigned) [Example 53, (S)- or (R)-6-(4-(1-(2-fluoro-4-(trifluoromethyl)phenyl)ethyl)-1H-pyrazol-1-yl)-2-methylpyrimidin-4(3H)-one]		64.5 nM
COc1ccc(Cc2nc(-c3cnn(C(C)c4ccc(S(F)(F)(F)(F)F)cc4)c3)cc(=O)[nH]2)cc1OC (single isomer, unassigned) [Example 65, (S)- or (R)-2-(3,4-dimethoxybenzyl)-6-(1-(1-(4-(pentafluorosulfanyl)phenyl)ethyl)-1H-pyrazol-4-yl)pyrimidin-4(3H)-one 4(3H)-one]	22 nM	9.9 nM
Cc1nc(-n2cc(Cc3ccc(C(F)(F)F)cc3)cn2)cc(=O)[nH]1 [Example 48, 2-methyl-6-(4-(4-(trifluoromethyl)benzyl)-1H-pyrazol-1-yl)pyrimidin-4(3H)-one]		333 nM
